Results published in PMC5011342, “A high throughput drug screening assay to identify compounds that promote oligodendrocyte differentiation using acutely dissociated and purified oligodendrocyte precursor cells” (BMC Research Notes, 2016).
Structures can show the parent of a compound that is named as a salt. Where two headings read alike, the source gives them in different places.

Experiments:
[1] = tested on: expanded OPCs; assay: cells; conditions: for viability at 0.1 µM / viability at 1 µM / viability at 10 µM: Rattus norvegicus, 72 h
Method in brief: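 Expanded OPCs seeded at 10,000 cells/well in differentiation media, then exposed to NCC library compounds at 10, 1 and 0.1 µM (quadruplicate, 0.1% DMSO) for three days. Viability read as alamarBlue fluorescence (560/590 nm) after 4 h at 37 °C; tunicamycin 5 ng/ml served as toxicity control.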

[2] = tested on: acutely dissociated and purified rat OPCs; assay: Acute OL differentiation assay (MBP expression/cell, immunofluorescent image quantification); format: cell-based; conditions: for activation at 0.4 µM: test compound at 0.4 uM, read-out: 0.4 uM (% Quet)
Method in brief: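 Oligodendrocyte precursor cells were enriched from P6-P7 Sprague–Dawley rat brains by immunopanning (RAN-2 and GalC depletion, O4 selection), plated at 5000 cells/well in serum-free, mitogen-free differentiation media on PDL/laminin 96-well view plates, centrifuged at 200×g, and pre-incubated 1–2 h before test compounds were added in quadruplicate. On DIV4, cells were fixed, stained for MBP and DAPI, imaged automatically, and MBP expression per cell was quantified.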

[3] = read-out: 0.1 µM (% DMSO), alamarBlue viability, NCC library compound at 0.1 µM, sheet "All Tox data"
[4] = read-out: 1 µM (% DMSO), alamarBlue viability, NCC library compound at 1 µM, sheet "All Tox data"
[5] = read-out: 10 µM (% DMSO), alamarBlue viability, NCC library compound at 10 µM, sheet "All Tox data"
[6] = Rattus norvegicus, test compound at 2 uM, NCC library screen, sheet "All OLga data", relative to quetiapine, read-out: 2 uM (% Quet)
[7] = Rattus norvegicus, test compound at 10 uM, NCC library screen, sheet "All OLga data", relative to quetiapine, read-out: 10 uM (% Quet)
[8] = alamarBlue viability of expanded OPCs, compound at 0.1 µM, relative to DMSO control
[9] = alamarBlue viability of expanded OPCs, compound at 1 µM, relative to DMSO control
[10] = alamarBlue viability of expanded OPCs, compound at 10 µM, relative to DMSO control
[11] = Rattus norvegicus, test compound at 2 uM, MBP expression relative to quetiapine, NCC library screen, sheet "All OLga data", read-out: 2 uM (% Quet)
[12] = Rattus norvegicus, test compound at 10 uM, MBP expression relative to quetiapine, NCC library screen, sheet "All OLga data", read-out: 10 uM (% Quet)
[13] = read-out: 0.1 µM (% DMSO), alamarBlue viability of expanded OPCs, compound at 0.1 µM, sheet All Tox data
[14] = read-out: 1 µM (% DMSO), alamarBlue viability of expanded OPCs, compound at 1 µM, sheet All Tox data
[15] = read-out: 10 µM (% DMSO), alamarBlue viability of expanded OPCs, compound at 10 µM, sheet All Tox data
[16] = Rattus norvegicus, 2 uM test compound, relative to quetiapine, sheet "All OLga data", read-out: OL differentiation, 2 uM (% Quet)
[17] = Rattus norvegicus, 10 uM test compound, relative to quetiapine, sheet "All OLga data", read-out: OL differentiation, 10 uM (% Quet)
[18] = Rattus norvegicus, NCC library screen, sheet "All OLga data", relative to quetiapine

Row | SMILES | activation at 2 µM [2, 6] [%] | 0.1 µM (% DMSO) [1, 8] [% DMSO] | 1 µM (% DMSO) [1, 9] [% DMSO] | 10 µM (% DMSO) [1, 10] [% DMSO] | viability at 0.1 µM [1, 13] [%] | viability at 1 µM [1, 14] [%] | viability at 10 µM [1, 15] [%] | activation at 2 µM [2, 16] [%] | activation at 10 µM [2, 17] [%] | further results
1 | CCN1CCN(c2cc3c(cc2F)c(=O)c(C(=O)O)cn3C2CC2)CC1 [Enrofloxacin] | -3.6 | – | – | – | – | – | – | – | – | viability at 0.1 µM [1, 3]: 88.5%; viability at 1 µM [1, 4]: 89%; viability at 10 µM [1, 5]: 79.9%; activation at 10 µM [2, 7]: 13.5%
2 | O=C(O[C@@H]1Cc2c(O)cc(O)cc2O[C@@H]1c1cc(O)c(O)c(O)c1)c1cc(O)c(O)c(O)c1 [Epigallocatechin gallate] | – | – | – | – | – | – | – | – | – | 0.1 µM (% DMSO) ([1]; alamarBlue viability of expanded OPCs, compound at 0.1 µM, sheet All Tox data): 81.9 % DMSO; 1 µM (% DMSO) ([1]; alamarBlue viability of expanded OPCs, compound at 1 µM, sheet All Tox data): 78.8 % DMSO; 10 µM (% DMSO) ([1]; alamarBlue viability of expanded OPCs, compound at 10 µM, sheet All Tox data): 48.5 % DMSO; OL differentiation, 0.4 uM (% Quet) ([2]; 0.4 uM test compound, relative to quetiapine, sheet "All OLga data"): -15.9 % Quet; OL differentiation, 2 uM (% Quet) ([2]; 2 uM test compound, relative to quetiapine, sheet "All OLga data"): 21.7 % Quet
3 | CNC[C@H](O)c1ccc(O)c(O)c1 [Epinephrine] | – | 101.9 | 92.7 | 81.7 | – | – | – | – | – | activation at 2 µM [2, 11]: -7.6%; activation at 10 µM [2, 12]: -15%
4 | COc1cc(C)nc(-n2nc(C)cc2OC)n1 [Epirizole] | -9.9 | – | – | – | – | – | – | – | – | viability at 0.1 µM [1, 3]: 106%; viability at 1 µM [1, 4]: 110%; viability at 10 µM [1, 5]: 112%; activation at 10 µM [2, 7]: -10.5%
5 | CCOC(=O)CCC(=O)O[C@H]1[C@H](O[C@@H]2[C@@H](C)[C@H](O[C@H]3C[C@@](C)(OC)[C@@H](O)[C@H](C)O3)[C@@H](C)C(=O)O[C@H](CC)[C@@](C)(O)[C@H](O)[C@@H](C)C(=O)[C@H](C)C[C@@]2(C)O)O[C@H](C)C[C@@H]1N(C)C [Erythromycin Ethylsuccinate] | 1 | 95.4 | 87.4 | 75.9 | – | – | – | – | – | activation at 10 µM [2, 7]: 8.7%
6 | CC[C@H]1OC(=O)[C@H](C)[C@@H](O[C@H]2C[C@@](C)(OC)[C@@H](O)[C@H](C)O2)[C@H](C)[C@@H](O[C@@H]2O[C@H](C)C[C@H](N(C)C)[C@H]2O)[C@](C)(O)C[C@@H](C)C(=O)[C@H](C)[C@@H](O)[C@]1(C)O [Erythromycin] | – | – | – | – | 93.4 | 89.6 | 59.1 | -40.1 | -66.2 | –
7 | COC(=O)CCc1ccc(OCC(O)CNC(C)C)cc1 (stereo not drawn) [Esmolol, reference compound] | – | – | – | – | 93.8 | 98.2 | 113 | 39.8 | 29.6 | EC50 ([2]; Rattus norvegicus, average EC50 for induction of OL differentiation from independent biological replicates, eight concentrations): 240 µM; hit in OL differentiation assay, MRF-TMC ([2]; ● = confirmed hit in this paper's assay): ●
8 | COc1ccc2nc([S@@+]([O-])Cc3ncc(C)c(OC)c3C)[nH]c2c1 [Esomeprazole] | – | – | – | – | 85.5 | 90 | 95.3 | 12.7 | -23.8 | –
9 | CCCCC(=O)O[C@H]1CC[C@H]2[C@@H]3CCc4cc(O)ccc4[C@H]3CC[C@]12C [Estradiol valerate] | – | – | – | – | – | – | – | – | – | viability at 0.1 µM [1, 3]: 93.2%; viability at 1 µM [1, 4]: 93.5%; viability at 10 µM [1, 5]: 9.6%; activation at 0.4 µM [2, 18]: -65.1%
10 | C[C@]12CC[C@@H]3c4ccc(O)cc4CC[C@H]3[C@@H]1CC[C@@H]2O [Estradiol] | – | – | – | – | 81.2 | 75.5 | 64.6 | 15.2 | 32.1 | –
11 | C[C@]12CC[C@@H]3c4ccc(OS(=O)(=O)O)cc4CC[C@H]3[C@@H]1CCC2=O [Estrone sulfate] | – | – | – | – | – | – | – | – | – | 0.1 µM (% DMSO) ([1]; alamarBlue viability, NCC library compound at 0.1 µM, sheet "All Tox data"): 94.4 % DMSO; 1 µM (% DMSO) ([1]; alamarBlue viability, NCC library compound at 1 µM, sheet "All Tox data"): 83.6 % DMSO; 10 µM (% DMSO) ([1]; alamarBlue viability, NCC library compound at 10 µM, sheet "All Tox data"): 92.4 % DMSO; 2 uM (% Quet) ([2]; test compound at 2 uM, NCC library screen, sheet "All OLga data", relative to quetiapine): 12.5 % Quet; 10 uM (% Quet) ([2]; test compound at 10 uM, NCC library screen, sheet "All OLga data", relative to quetiapine): 10.2 % Quet
12 | CN1CCN(C(=O)O[C@H]2c3nccnc3C(=O)N2c2ccc(Cl)cn2)CC1 [Eszopiclone] | – | 103.0 | 99.5 | 106.9 | – | – | – | – | – | activation at 2 µM [2, 11]: -2.9%; activation at 10 µM [2, 12]: -10.2%
13 | C=C(CC)C(=O)c1ccc(OCC(=O)O)c(Cl)c1Cl [Ethacrynic Acid] | -192 | 90.2 | 80.6 | 11.2 | – | – | – | – | – | activation at 0.4 µM [2, 18]: -23.7%
